{"source": "paper PMC5943542", "about": "“Targeting LMW‐PTP to sensitize melanoma cancer cells toward chemo‐ and radiotherapy” (Cancer Medicine, 2018)", "target": "T1, LMW-PTP (recombinant isoforms IF-A and IF-B) (Homo sapiens, UniProt P24666)", "T1 construct": "gene ACP1; purified recombinant human LMW-PTP, isoform A (IF-A) and isoform B (IF-B)", "T1 sequence (P24666 2-158)": "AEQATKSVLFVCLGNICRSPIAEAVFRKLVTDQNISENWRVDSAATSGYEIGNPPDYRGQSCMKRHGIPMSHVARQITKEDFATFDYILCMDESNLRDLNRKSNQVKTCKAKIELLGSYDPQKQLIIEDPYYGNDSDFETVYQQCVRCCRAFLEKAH", "assay": "p-nitrophenylphosphate hydrolysis kinetics with purified recombinant enzyme, double reciprocal plots", "format": "biochemical", "data": [{"compound": "O=c1c(O)c(-c2ccc(O)cc2O)oc2cc(O)cc(O)c12", "note": "[Morin]", "values": [{"measurement": "Ki", "value": "micromolar range"}]}]}
